From patent publication US9475854B2, “Lead compound for otoprotection: targeting HGF signaling with dihexa” (Washington State University, priority 2014, dated 2016)
Square brackets hold non-standard residues; d marks the D form. Peptide text beside a SMILES is read from it. * marks the point of attachment. Hexanoyl = CCCCCC(=O)*; Ahx = NCCCCCC(=O)O

Assays:
[1] = tested on: rats; conditions: in vivo in rats (Owens et al., 2008, Rubel et al., 2011); cited from earlier work
[2] = tested on: zebrafish lateral line hair cells; assay: Protection of zebrafish lateral line hair cells from aminoglycoside toxicity (hair cell survival); assay type: in vivo; conditions: for hair cell survival rate: 1 μM Dihexa
Source text: The data is presented as mean+1 standard deviation (s.d.) ***p<0.005. ****p<0.001, with the number of stars being the confidence for the measurements and the p (i.e., p-value) being the probability of obtaining a test statistic result at least as extreme as the one that was actually observed. It is to be appreciated the differences are considered significant at P<0.05. Note also that the 0 Dihexa concentration levels in FIG. 1 and FIG. 2 are control levels no protective Dihexa was introduced as just Neomycin and Gentamicin is present in the hair cells.
Such an example method of operation can be enabled by providing Dihexa concentrations for each ototoxin. […] Toxin concentrations and treatment times are selected so that in each case, a range of about 60% up to about 80% hair cell loss is achieved, sufficient to robustly detect protection. While the methodology described above provides desirable information for a variety of ototoxins, the Dihexa-mediated protection for neomycin, gentamicin, and kanamycin, as enabled herein, is the most desirable because these three antibiotics activate partially independent cell death pathways, such that a single compound may not universally protect hair cells from aminoglycoside toxicity (Owens et al., 2009; Coffin et al., 2009; Vlasits et al., 2012; Coffin et al., 2013).
As part of the analysis process, after treatment, hair cell survival is more often quantitatively assessed by labeling with either the vital dye DASPEI for assessment in live, anesthetized fish, or with an antibody to parvalbumin for quantification in fixed tissue (Harris et al., 2003; Owens et al., 2009; Coffin et al., 2009, 2013). DASPEI allows for rapid assessment with minimal tissue processing time, while immunofluorescence is used to validate DASPEI assessment scores. Labeled hair cells are thereafter viewed using fluorescence microscopy and quantified as described in the published literature (e.g., Harris et al., 2003; Coffin et al., 2009, 2013). […]

[3] = Short duration safety studies; assay type: in vivo
Source text: This is unsurprising since oncogenesis requires multiple mutations including both oncogene induction and tumor suppressor attenuation. Accordingly, Dihexa, as utilized herein, can also be delivered locally via intratympanic membrane injection of a Dihexa-containing hydrogel (e.g., Salt et al., 2011; Wang et al., 2011) as a way of the proof-of-principle that Dihexa is robustly otoprotective in for example, but not limited to, pre-clinical models.

[4] = tested on: rat dementia model; conditions: in vivo administration (McCoy et al., 2013; unpublished data); cited from earlier work
[5] = tested on: rat Parkinson's Disease model; conditions: in vivo administration (McCoy et al., 2013; unpublished data); cited from earlier work

SMILES	protection from aminoglycosides [1]	protection from Neomycin-induced hair cell death ([2]; 1 μM Dihexa across Neomycin dose levels, FIG. 3)	hair cell survival rate ([2]; 50 μM Gentamycin toxicity, FIG. 2)	hair cell survival rate ([2]; 200 μM Neomycin toxicity, FIG. 1)	neoplastic induction [3]	toxicity [3]	symptoms in rat dementia model [4]	symptoms in rat Parkinson's Disease model [5]
CCN1CCc2c(sc(NC(=O)Nc3ccc(Cl)cc3)c2C(N)=O)C1 [PROTO-1]	confers protection							
CCCCCC(=O)N[C@@H](Cc1ccc(O)cc1)C(=O)N[C@H](C(=O)NCCCCCC(N)=O)[C@@H](C)CC [Dihexa] (Hexanoyl-Tyr-Ile-[Ahx]-NH2)		robust protection	greater than 40%	greater than 60%	lack of neoplastic induction	no apparent toxicity	significantly attenuates symptoms	significantly attenuates symptoms
